# Laboratory results reported in PubChem BioAssay (NCI).
#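 Protocol summary: plate cells (96-well), add compound at 5 concentrations, incubate 48 h, interpolate endpoints linearly. TGI denotes the concentration required for complete inhibition of growth.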
# Columns and labels:
# Test in all cases: growth of human tumour cells (NCI), 48 h
# 786-0 renal = tested on: 786-0 renal
# NCI/ADR-RES ovarian = tested on: NCI/ADR-RES ovarian
# SF-539 CNS = tested on: SF-539 CNS
# OVCAR-3 ovarian = tested on: OVCAR-3 ovarian
# DU-145 prostate = tested on: DU-145 prostate
# COLO 205 colon = tested on: COLO 205 colon
# HCT-15 colon = tested on: HCT-15 colon
# NCI-H460 lung = tested on: NCI-H460 lung
# CCRF-CEM leukemia = tested on: CCRF-CEM leukemia
# HL-60(TB) leukemia = tested on: HL-60(TB) leukemia
SMILES,TGI (786-0 renal),TGI (NCI/ADR-RES ovarian),TGI (SF-539 CNS),TGI (OVCAR-3 ovarian),TGI (DU-145 prostate),TGI (COLO 205 colon),TGI (HCT-15 colon),TGI (NCI-H460 lung),TGI (CCRF-CEM leukemia),TGI (HL-60(TB) leukemia)
NC(N)=N/N=C(\c1ccc(Cl)cc1)C1CC1,32.5 µM,61.2 µM,32.3 µM,50.4 µM,57.4 µM,31 µM,40.2 µM,29.9 µM,,
Cc1ccc2c(c1)c(=O)c1c(NCCN(C)C)ccc3nnn2c31,15.9 µM,,17.8 µM,> 42.8 µM,,9.72 µM,20.3 µM,10.2 µM,17.9 µM,8.58 µM
CCCCCCCCCCCCCCCCOCC(CC(F)(F)P(=O)(O)O)OC(C)=O (stereo not drawn),> 50 µM,> 50 µM,,> 50 µM,> 50 µM,> 50 µM,> 50 µM,> 50 µM,,
CCCCc1ccc2[n+](c1)C(C(=O)OCC)=PC2 (stereo not drawn),> 100 µM,,> 100 µM,> 100 µM,> 100 µM,> 100 µM,> 100 µM,> 100 µM,> 100 µM,> 100 µM
O=C1c2cc([N+](=O)[O-])ccc2NC2C(O)c3ccccc3N12 (stereo not drawn),64.4 µM,63.1 µM,74.7 µM,> 100 µM,94.5 µM,> 100 µM,> 100 µM,97 µM,,
O=c1[nH]c(=O)n(C2CC(O)C(CO)O2)cc1C#Cc1ccc(C(F)(F)F)cc1 (stereo not drawn),> 100 µM,,> 100 µM,> 100 µM,,> 100 µM,> 100 µM,> 100 µM,> 100 µM,> 100 µM
COc1cc(N=Nc2cccc(S(=O)(=O)O)c2)c(C)cc1N=Nc1ccc(/C=C/c2ccc(N=[N+]([O-])c3ccc(/C=C/c4ccc(N=Nc5cc(C)c(N=Nc6cccc(S(=O)(=O)O)c6)cc5OC)cc4)c(S(=O)(=O)O)c3)cc2S(=O)(=O)O)cc1,,> 100 µM,> 100 µM,> 100 µM,,> 100 µM,> 100 µM,> 100 µM,> 100 µM,> 100 µM
Oc1c2cccc1Cc1cccc3c1OCCOCCOCCOCCOc1c(cccc1Cc1cccc(c1O)C3)C2,> 100 µM,> 100 µM,> 100 µM,> 100 µM,> 100 µM,> 100 µM,> 100 µM,,> 100 µM,
CC(C)(C)OC(=O)NC(Cc1ccccc1)C(=O)N[C@H]1c2ccsc2/C(=N/O)[C@H]1O (stereo partly drawn),,> 100 µM,> 100 µM,> 100 µM,> 100 µM,> 100 µM,> 100 µM,> 100 µM,> 100 µM,> 100 µM
CCCCC[C@H](O)[C@H](C)C=C1SCCCS1,> 100 µM,> 100 µM,,> 100 µM,> 100 µM,> 100 µM,> 100 µM,,> 100 µM,> 100 µM
NC1=NS(=O)(=O)N=C(N)C1=Cc1ccc([N+](=O)[O-])o1,30.8 µM,,32.3 µM,32.4 µM,,29.1 µM,30.7 µM,35.9 µM,92.8 µM,> 100 µM
O=C1/C(=C/c2ccccc2S)N=C(c2ccccc2)N1c1ccc2c(c1)Sc1cc(N3C(=O)/C(=C/c4ccccc4S)N=C3c3ccccc3)ccc1N2,46.4 µM,> 100 µM,24.1 µM,38.1 µM,40.4 µM,> 100 µM,> 100 µM,63.7 µM,33.3 µM,
CC(C)=CCN(N=O)c1ncnc2nc[nH]c12,> 100 µM,> 100 µM,> 100 µM,> 100 µM,> 100 µM,> 100 µM,,> 100 µM,> 100 µM,> 100 µM
Cc1ccc(S(=O)(=O)Nn2c(-c3ccccc3)c(C#N)c(-c3ccc([N+](=O)[O-])cc3)c(C#N)c2=O)cc1,> 100 µM,> 100 µM,> 100 µM,,,> 100 µM,> 100 µM,> 100 µM,> 100 µM,> 100 µM
CC1=NNC(N)=N/C1=C/C(Sc1ccc(Cl)cc1)c1cccs1 (stereo not drawn),82.4 µM,> 100 µM,,,68.2 µM,46.2 µM,30 µM,30.5 µM,9.79 µM,
COc1cc(C(=O)Nc2nnc(S(N)(=O)=O)s2)cc(OC)c1OC,> 100 µM,> 100 µM,> 100 µM,> 100 µM,> 100 µM,> 100 µM,> 100 µM,> 100 µM,,> 100 µM
O=c1c(Cc2ccc(Cl)cc2)nnc2sc(-c3ccc([N+](=O)[O-])cc3)nn12,> 100 µM,> 100 µM,,,> 100 µM,,29.3 µM,44.1 µM,55.8 µM,49.6 µM
O=C(C[C@@H]1NCCC[C@H]1O)Cn1cnc2cc(Br)c(Cl)cc2c1=O,0.135 µM,0.603 µM,0.347 µM,0.9 µM,0.0919 µM,0.0391 µM,0.403 µM,> 100 µM,> 100 µM,
Cc1ccc2ccccc2c1CC1S(=O)(=O)OCCOS1(=O)=O,30.3 µM,72.4 µM,,19.5 µM,24.1 µM,6.1 µM,42.9 µM,27.4 µM,27.1 µM,5.38 µM
COc1cc(S(=O)(=O)Nc2nc(-c3ccc(N4C(=O)/C(=C/c5ccccc5)N=C4c4ccccc4)cc3)cs2)ccc1Cl,> 100 µM,> 100 µM,> 100 µM,> 100 µM,> 100 µM,> 100 µM,> 100 µM,> 100 µM,> 100 µM,
C/C(=N\N(C)C)C(CN(C)C)C(c1ccccc1)c1c(O)c2ccccc2oc1=O (stereo not drawn),> 100 µM,,,> 100 µM,,> 100 µM,> 100 µM,> 100 µM,> 100 µM,> 100 µM
COc1ccc(N2C(=O)C3c4[nH]c5ccc(C)cc5c4C4CCC(C(C)C)CC4C3C2=O)cc1 (stereo not drawn),> 100 µM,> 100 µM,,> 100 µM,> 100 µM,> 100 µM,> 100 µM,> 100 µM,> 100 µM,
O=C(Cc1nc2ccc(C(=O)c3ccccc3)cc2[nH]c1=O)C(=O)Nc1ccccc1[N+](=O)[O-],> 100 µM,> 100 µM,> 100 µM,> 100 µM,,,> 100 µM,> 100 µM,> 100 µM,> 100 µM
CC(=O)O[C@]12CCCCCCC1C1(O)C(O)CCC[C@H]12 (stereo partly drawn),> 100 µM,,,,,> 100 µM,> 100 µM,> 100 µM,> 100 µM,
